Test results from US11407719B2, “Anti-inflammatory agents” (Resverlogix Corp., priority 2009, dated 2022).

Tests used:
[1] = tested on: hIL-6 mRNA; test: Quantification of hIL-6 mRNA; format: cell-based, human; design: key: Active: an active compound is one that causes a ≥20% inhibition in IL-6 mRNA at a concentration less than or equal to 10 μM; settings: IL-6 mRNA by real-time PCR; differentiated U937 cells, 1 h pretreatment, lipopolysaccharide stimulation 3 h; concentration ≤10 μM
Method: In this example, […] in tissue culture cells was quantitated to measure the transcriptional inhibition of hIL-6 when treated with a compound of the invention.
A human leukemic monocyte lymphoma cell line (U937) was plated (3.2×10^5 cells per well) in a 96-well plate in 100 μL RPMI-1640, and differentiated for 3 days prior to the addition of the compound of interest. The cells were pretreated for 1 h with the test compound prior to stimulation with lipolysaccharide from Escherichia coli. The cells were incubated at 37° C. for 3 h before the cells were harvested. At time of harvest, the spent media was removed from the cells and the cells were rinsed in 200 μL PBS. Cell lysis solution (70 μL) was added the cells in each well and incubated for 5-10 min at room temperature, to allow for complete cell lysis and detachment. mRNA was then prepared using the “mRNA Catcher PLUS plate” (Invitrogen), according to the protocol supplied. After the last wash, as much wash buffer as possible was aspirated without allowing the wells to dry. Elution buffer (E3, 70 μL) was then added to each well. mRNA was then eluted by incubating the mRNA Catcher PLUS plate with Elution Buffer for 5 min at 68° C. and then immediately placing the plate on ice.
The eluted mRNA isolated was then used in a one-step quantitative real-time PCR reaction, using components of the Ultra Sense Kit together with Applied Biosystems primer-probe mixes. Real-time PCR data was analyzed, normalizing the Ct values for hIL-6 to an internal control, prior to determining the fold induction of each unknown sample, relative to the control.

[2] = tested on: VCAM-1 mRNA; test: Quantification of hVCAM mRNA; format: cell-based, human; design: key: Active: an active compound is one that causes a ≥20% inhibition in VCAM-1 mRNA at a concentration less than or equal to 10 μM; -1 mRNA at a concentration less than or equal to 10 μM; settings: VCAM-1 mRNA by real-time PCR; HUVECs, 1 h pretreatment, tumor necrosis factor-α stimulation 24 h; concentration ≤10 μM
Method: In this example, […] in tissue culture cells was quantitated to measure the transcriptional inhibition of hVCAM when treated with a compound of the invention.
Human umbilical vein endothelial cells (HUVECs) were plated in a 96-well plate (4.0×10^3 cells/well) in 100 μL EGM media and incubated for 24 h prior to the addition of the compound of interest. The cells were pretreated for 1 h with the test compound prior to stimulation with tumor necrosis factor-α. The cells were incubated for an additional 24 h before the cells were harvested. At time of harvest, the spent media was removed from the HUVECs and rinsed in 200 μL PBS. Cell lysis solution (70 μL) was then added the cells in each well and incubated for ˜5-10 min at room temperature, to allow for complete cell lysis and detachment. mRNA was then prepared using the “mRNA Catcher PLUS plate” (Invitrogen), according to the protocol supplied. After the last wash, as much wash buffer as possible was aspirated without allowing the wells to dry. Elution buffer (E3, 70 μL) was then added to each well. mRNA was then eluted by incubating the mRNA Catcher PLUS plate with elution buffer for 5 min at 68° C. and then immediately placing the plate on ice.
The eluted mRNA so isolated was then used in a one-step quantitative real-time PCR reaction, using components of the Ultra Sense Kit together with Applied Biosystems primer-probe mixes. Real-time PCR data was analyzed, normalizing the Ct values for hVCAM to an internal control, prior to determining the fold induction of each unknown sample, relative to the control.

COc1cc(OC)c2c(=O)[nH]c(-c3ccc(N4C[C@@H](C)N(C(C)=O)[C@@H](C)C4)cc3)nc2c1 [2-(4-((3R,5S)-4-Acetyl-3,5-dimethylpiperazin-1-yl)phenyl)-5,7-dimethoxyquinazolin-4(3H)-one]
Inhibition of IL-6 expression [1]: Active
Inhibition of VCAM-1 expression [2]: Active

COc1cccc2c(=O)[nH]c(-c3ccc(N4CCN(C(C)C)CC4)cc3)nc12 [2-(4-(4-Isopropylpiperazin-1-yl)phenyl)-8-methoxyquinazolin-4(3H)-one]
Inhibition of IL-6 expression [1]: Active
Inhibition of VCAM-1 expression [2]: Active

CCCCN1CCN(c2ccc(-c3nc4cc(OC)cc(OC)c4c(=O)[nH]3)cc2)CC1 [2-(4-(4-butylpiperazin-1-yl)phenyl)-5,7-dimethoxyquinazolin-4(3H)-one]
Inhibition of IL-6 expression [1]: Active
Inhibition of VCAM-1 expression [2]: Active

COc1cc(OC)c2c(=O)[nH]c(-c3ccc(Nc4cccnc4)cc3)nc2c1 [5,7-Dimethoxy-2-(4-(pyridin-3-ylamino)phenyl)quinazolin-4(3H)-one]
Inhibition of IL-6 expression [1]: Active
Inhibition of VCAM-1 expression [2]: Active

COc1cc(OC)c2c(=O)[nH]c(-c3ccc(N4CCN(C(=O)C(C)C)CC4)cc3)nc2c1 [2-(4-(4-Isobutyrylpiperazin-1-yl)phenyl)-5,7-dimethoxyquinazolin-4(3H)-one]
Inhibition of IL-6 expression [1]: Active
Inhibition of VCAM-1 expression [2]: Active

CCN(C(C)=O)C1CCN(c2ccc(-c3nc4cc(OC)cc(OC)c4c(=O)[nH]3)cc2)CC1 [N-(1-(4-(5,7-Dimethoxy-4-oxo-3,4-dihydroquinazolin-2-yl)phenyl)piperidin-4-yl)-N-ethylacetamide]
Inhibition of IL-6 expression [1]: Active
Inhibition of VCAM-1 expression [2]: Active

COc1cc(OC)c2c(=O)[nH]c(-c3ccc(N4CCCNCC4)cc3)nc2c1 [2-(4-(1,4-Diazepan-1-yl)phenyl)-5,7-dimethoxyquinazolin-4(3H)-one]
Inhibition of IL-6 expression [1]: Active
Inhibition of VCAM-1 expression [2]: Active

Cc1cc(-c2nc3cc(F)cc(F)c3c(=O)[nH]2)cc(C)c1OCCN1CCCC1 [2-(3,5-Dimethyl-4-(2-(pyrrolidin-1-yl)ethoxy)phenyl)-5,7-difluoroquinazolin-4(3H)-one]
Inhibition of IL-6 expression [1]: Active
Inhibition of VCAM-1 expression [2]: Active

CCCCCC(=O)N1CCN(c2ccc(-c3nc4cc(OC)cc(OC)c4c(=O)[nH]3)cc2)CC1 [2-(4-(4-Hexanoylpiperazin-1-yl)phenyl)-5,7-dimethoxyquinazolin-4(3H)-one]
Inhibition of IL-6 expression [1]: Active
Inhibition of VCAM-1 expression [2]: Inactive

COc1cc(OC)cc(-c2nc3cc(OC)cc(OC)c3c(=O)[nH]2)c1 [2-(3,5-dimethoxyphenyl)-5,7-dimethoxyquinazolin-4(3H)-one]
Inhibition of IL-6 expression [1]: Active
Inhibition of VCAM-1 expression [2]: Active

CCN1CCN(Cc2ccc(-c3nc4cc(OC)cc(OC)c4c(=O)[nH]3)cc2)CC1 [2-(4-((4-ethylpiperazin-1-yl)methyl)phenyl)-5,7-dimethoxyquinazolin-4(3H)-one]
Inhibition of IL-6 expression [1]: Active
Inhibition of VCAM-1 expression [2]: Active

COc1cc(OC)c2c(=O)[nH]c(-c3ccc(N4CCN(C(=O)CC(F)(F)F)CC4)cc3)nc2c1 [5,7-Dimethoxy-2-(4-(4-(3,3,3-trifluoropropanoyl)piperazin-1-yl)phenyl)quinazolin-4(3H)-one]
Inhibition of IL-6 expression [1]: Active
Inhibition of VCAM-1 expression [2]: Active

COc1cc(OC)c2c(=O)[nH]c(-c3ccc(N4CCN(C(=O)C5CC5)CC4)cc3)nc2c1 [2-(4-(4-(Cyclopropanecarbonyl)piperazin-1-yl)phenyl)-5,7-dimethoxyquinazolin-4(3H)-one]
Inhibition of IL-6 expression [1]: Active
Inhibition of VCAM-1 expression [2]: Active

COc1cc(OC)c2c(=O)[nH]c(-c3ccc(N4CCC(NC(C)=O)CC4)cc3)nc2c1 [N-(1-(4-(5,7-Dimethoxy-4-oxo-3,4-dihydroquinazolin-2-yl)phenyl)piperidin-4-yl)acetamide]
Inhibition of IL-6 expression [1]: Active
Inhibition of VCAM-1 expression [2]: Active

O=c1[nH]c(-c2ccc(N3CCN(CC(F)(F)F)CC3)cc2)nc2ccccc12 [2-(4-(4-(2,2,2-Trifluoroethyl)piperazin-1-yl)phenyl)quinazolin-4(3H)-one]
Inhibition of IL-6 expression [1]: Active
Inhibition of VCAM-1 expression [2]: Inactive

COc1cc(OC)c2c(=O)[nH]c(-c3ccc(N4CCN(C(C)=O)C(C)C4)cc3)nc2c1 (stereo not shown) [2-(4-(4-Acetyl-3-methylpiperazin-1-yl)phenyl)-5,7-dimethoxyquinazolin-4(3H)-one]
Inhibition of IL-6 expression [1]: Active
Inhibition of VCAM-1 expression [2]: Active

COc1cc(OC)c2c(=O)[nH]c(-c3cc(C)c(OCCN4CCOCC4)c(C)c3)cc2n1 [7-(3,5-dimethyl-4-(2-morpholinoethoxy)phenyl)-2,4-dimethoxy-1,6-naphthyridin-5(6H)-one]
Inhibition of IL-6 expression [1]: Active
Inhibition of VCAM-1 expression [2]: Active

COc1cc(OC)c2c(=O)[nH]c(-c3ccc(N4CCC(NS(C)(=O)=O)CC4)cc3)nc2c1 [N-(1-(4-(5,7-Dimethoxy-4-oxo-3,4-dihydroquinazolin-2-yl)phenyl)piperidin-4-yl)methanesulfonamide]
Inhibition of IL-6 expression [1]: Active

COc1cc(OC)c2c(=O)[nH]c(-c3cc(C)c(OCCN4CCOCC4)c(C)c3)cc2c1 [3-(3,5-dimethyl-4-(2-morpholinoethoxy)phenyl)-6,8-dimethoxyisoquinolin-1(2H)-one]
Inhibition of IL-6 expression [1]: Active

COc1cc(OC)c2c(=O)[nH]c(-c3ccc(N4CCC(NCc5ccccc5)CC4)nc3)nc2c1 [2-(6-(4-(Benzylamino)piperidin-1-yl)pyridin-3-yl)-5,7-dimethoxyquinazolin-4(3H)-one]
Inhibition of IL-6 expression [1]: Active

COc1cc(OC)c2c(=O)[nH]c(-c3ccc(N(CCO)CCO)cc3)nc2n1 [2-(4-(bis(2-hydroxyethyl)amino)phenyl)-5,7-dimethoxypyrido[2,3-d]pyrimidin-4(3H)-one]
Inhibition of IL-6 expression [1]: Active

COc1cc(OC)c2c(=O)[nH]c(-c3ccc4[nH]c(CCO)cc4c3)nc2c1 [2-(2-(2-Hydroxyethyl)-1H-indol-5-yl)-5,7-dimethoxyquinazolin-4(3H)-one]
Inhibition of IL-6 expression [1]: Active

COc1cc(OC)c2c(=O)[nH]c(-c3ccc(CN4CCC(N(C(C)=O)C(C)C)CC4)cc3)nc2c1 [N-(1-(4-(5,7-Dimethoxy-4-oxo-3,4-dihydroquinazolin-2-yl)benzyl)piperidin-4-yl)-N-isopropylacetamide]
Inhibition of IL-6 expression [1]: Active

COc1cc(OC)c2c(=O)[nH]c(-c3cc(C)c(OCCN4C(=O)c5ccccc5C4=O)c(C)c3)cc2c1 [2-(2-(4-(6,8-Dimethoxy-1-oxo-1,2-dihydroisoquinolin-3-yl)-2,6-dimethylphenoxy)ethyl)isoindoline-1,3-dione]
Inhibition of IL-6 expression [1]: Active

CC(C)N1CCN(c2ccc(-c3nc4cccc(Cl)c4c(=O)[nH]3)cc2)CC1 [5-Chloro-2-(4-(4-isopropylpiperazin-1-yl)phenyl)quinazolin-4(3H)-one]
Inhibition of IL-6 expression [1]: Active

Cc1cc(-c2nc3nc(OC(C)C)cc(OC(C)C)c3c(=O)[nH]2)cc(C)c1OCCN1CCCC1 [2-(3,5-Dimethyl-4-(2-(pyrrolidin-1-yl)ethoxy)phenyl)-5,7-diisopropoxypyrido[2,3-d]pyrimidin-4(3H)-one]
Inhibition of IL-6 expression [1]: Active
